Test results taken from ChEMBL document CHEMBL1201862, “PubChem BioAssay data set” (2004).
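Results reflect a 48-hour exposure of cells in 96-well plates to compound at five concentrations. GI50 = concentration required for 50% inhibition of growth.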 Activity calls are given as the source filed them. Cut-off read from the data, not from the text of the source: active = GI50 up to about 1.1 µM and inactive = higher.

Experiments:
Assay in all cases: NCI anticancer screen, dose series, 48 h
[1] = system: UACC-257
[2] = system: MDA-N
[3] = system: A498
[4] = system: CAKI-1
[5] = system: UACC-62
[6] = system: HL-60
[7] = system: SK-OV-3
[8] = system: MDA-MB-231
[9] = system: MOLT-4
[10] = system: HOP-62
[11] = system: SF-295
[12] = system: U-251
[13] = system: RXF 393
[14] = system: OVCAR-4
[15] = system: SNB-19
[16] = system: RPMI-8226
[17] = system: MCF7
[18] = system: NCI-H460
[19] = system: SF-539

Row | SMILES | GI50 [1] | GI50 [2] | GI50 [3] | GI50 [4] | GI50 [5] | GI50 [6] | GI50 [7] | GI50 [8] | GI50 [9] | GI50 [10] | GI50 [11] | GI50 [12] | GI50 [13] | GI50 [14] | GI50 [15] | GI50 [16] | GI50 [17] | GI50 [18] | GI50 [19]
1 | CCc1nn(CN2CCN(C)CC2)c(=S)n1/N=C\c1ccc(-c2ccc([N+](=O)[O-])cc2)o1 | 57.7 µM (inactive) | 94 µM (inactive) | 26 µM (inactive) | 74.5 µM (inactive) | 39 µM (inactive) | > 100 µM (inactive) | 40.7 µM (inactive) | 39.1 µM (inactive) | 34.7 µM (inactive) | 28.4 µM (inactive) | 40.7 µM (inactive) | 43.6 µM (inactive) | 26.8 µM (inactive) | 44 µM (inactive) | 33.7 µM (inactive) | 39.5 µM (inactive) | 40.5 µM (inactive) | 57.4 µM (inactive) | –
2 | CC1=CC(C)(C)Nc2ccc(CSc3ccccc3)cc21 | 26.7 µM (inactive) | 22 µM (inactive) | 24.1 µM (inactive) | 36.1 µM (inactive) | 41.1 µM (inactive) | – | 31.3 µM (inactive) | 32.9 µM (inactive) | – | 29.7 µM (inactive) | 20 µM (inactive) | 31.8 µM (inactive) | 16.3 µM (inactive) | 21.1 µM (inactive) | 37.7 µM (inactive) | 14.9 µM (inactive) | 22 µM (inactive) | 24.9 µM (inactive) | 44.8 µM (inactive)
3 | COc1ccc(OC)c(CC(=O)c2ccc(O)c(C(=O)NCCc3ccc(F)cc3)c2)c1 | 10.5 µM (inactive) | 0.498 µM (active) | 12.2 µM (inactive) | 3.26 µM (inactive) | – | 2.16 µM (inactive) | 2.69 µM (inactive) | 4.74 µM (inactive) | 5.04 µM (inactive) | 1.54 µM (inactive) | 2.82 µM (inactive) | 3.6 µM (inactive) | 1.09 µM (active) | 4.06 µM (inactive) | 3.79 µM (inactive) | 4.1 µM (inactive) | 2.99 µM (inactive) | 3.85 µM (inactive) | –
4 | COc1ccc(OC)c(N2C(=O)/C(=C\c3ccccc3)SC2c2cc(OC)c(OC)c(OC)c2)c1 (centres undefined) | > 100 µM (inactive) | 22 µM (inactive) | 51.5 µM (inactive) | > 84.3 µM (inactive) | 4.06 µM (inactive) | 58.9 µM (inactive) | > 100 µM (inactive) | > 100 µM (inactive) | 52.6 µM (inactive) | > 100 µM (inactive) | 47.5 µM (inactive) | > 100 µM (inactive) | 11.6 µM (inactive) | > 91.8 µM (inactive) | > 100 µM (inactive) | 71.4 µM (inactive) | 3.24 µM (inactive) | – | –
5 | NC(CSCc1ccc(I)cc1)C(=O)O (centres undefined) | > 100 µM (inactive) | > 100 µM (inactive) | > 100 µM (inactive) | > 100 µM (inactive) | > 100 µM (inactive) | > 100 µM (inactive) | > 100 µM (inactive) | > 100 µM (inactive) | > 100 µM (inactive) | > 100 µM (inactive) | > 100 µM (inactive) | > 100 µM (inactive) | > 100 µM (inactive) | > 100 µM (inactive) | > 100 µM (inactive) | > 100 µM (inactive) | > 100 µM (inactive) | > 100 µM (inactive) | –
6 | COc1ccc(-n2c(C)nc3ccc(NC4OC(CO)C(O)C(O)C4O)cc3c2=O)cc1 (centres undefined) | > 100 µM (inactive) | > 100 µM (inactive) | > 100 µM (inactive) | > 100 µM (inactive) | > 100 µM (inactive) | > 100 µM (inactive) | – | > 100 µM (inactive) | > 100 µM (inactive) | > 100 µM (inactive) | > 100 µM (inactive) | > 100 µM (inactive) | > 100 µM (inactive) | > 100 µM (inactive) | > 100 µM (inactive) | > 100 µM (inactive) | > 100 µM (inactive) | > 100 µM (inactive) | –
